The target of experiment [1] is T1, Amine oxidase [flavin-containing] A (Rattus norvegicus, UniProt P21396).
T1 sequence (P21396 whole entry): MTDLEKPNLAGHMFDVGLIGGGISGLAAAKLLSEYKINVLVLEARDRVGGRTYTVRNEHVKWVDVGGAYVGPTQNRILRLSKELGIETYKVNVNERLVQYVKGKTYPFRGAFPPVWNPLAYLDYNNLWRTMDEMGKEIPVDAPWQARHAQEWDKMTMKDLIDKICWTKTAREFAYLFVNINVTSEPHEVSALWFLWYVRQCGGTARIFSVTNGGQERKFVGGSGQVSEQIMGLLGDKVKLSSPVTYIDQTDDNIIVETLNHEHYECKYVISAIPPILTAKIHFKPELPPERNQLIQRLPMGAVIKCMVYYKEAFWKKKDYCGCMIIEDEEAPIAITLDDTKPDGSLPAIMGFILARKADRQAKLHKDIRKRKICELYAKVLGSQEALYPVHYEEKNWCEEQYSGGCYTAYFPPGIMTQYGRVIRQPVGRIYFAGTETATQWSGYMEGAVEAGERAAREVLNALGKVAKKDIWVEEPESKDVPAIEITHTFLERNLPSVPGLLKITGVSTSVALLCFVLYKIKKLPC
The experiment in a line: Inhibition of rat brain synaptosome MAO-A.

Experiment [2] deals with T2, Amine oxidase [flavin-containing] B (Rattus norvegicus, UniProt P19643).
T2 sequence (P19643 whole entry): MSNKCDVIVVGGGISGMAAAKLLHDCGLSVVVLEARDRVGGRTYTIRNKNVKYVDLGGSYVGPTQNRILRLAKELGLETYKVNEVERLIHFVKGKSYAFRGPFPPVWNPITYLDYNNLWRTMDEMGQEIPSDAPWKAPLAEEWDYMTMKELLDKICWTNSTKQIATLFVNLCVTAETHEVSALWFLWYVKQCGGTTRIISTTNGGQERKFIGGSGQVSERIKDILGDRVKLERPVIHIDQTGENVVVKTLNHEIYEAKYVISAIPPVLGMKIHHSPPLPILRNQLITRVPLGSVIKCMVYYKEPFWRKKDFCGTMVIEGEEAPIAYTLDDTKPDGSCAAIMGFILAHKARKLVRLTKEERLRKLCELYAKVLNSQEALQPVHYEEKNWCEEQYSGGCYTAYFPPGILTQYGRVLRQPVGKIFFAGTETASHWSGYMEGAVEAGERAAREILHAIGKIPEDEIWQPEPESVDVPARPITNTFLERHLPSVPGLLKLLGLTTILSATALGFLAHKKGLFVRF
The experiment in a line: Inhibition of rat brain synaptosome MAO-B.

A word on the IC50: it is the concentration at which inhibition is half-maximal. Turning to `Cc1c(C(=O)CC(C#N)C#N)c(=O)n(-c2ccccc2)n1C`, the IC50 in experiment [1] stood at 2.3 nM; in experiment [2], 13 nM.

The values above are taken from BindingDB's records for PubMed 31761383 (n/a, 2020).
